Test results: US12122821B2, “Regulation of glucose metabolism using anti-CGRP antibodies” (H. LUNDBECK A/S, priority 2013, dated 2024)

Test system: Zucker diabetic fatty (ZDF) rat
Details: ZDF rats
Experimental: Each pancreas was divided into 2 parts (longitudinal cut). One piece was fixed in 10% formalin solution for histopathological processing. The other piece of pancreas was flash frozen and kept at −80° C. for determination of insulin and proinsulin levels.
Each pancreas sample was fixed in 4% formalin during 24-48 hours maximum; the volume of formalin was 5-10 times higher than the sample volume to assure appropriate fixation. After 48 h, the samples were placed in 70% ethanol.

[1] = Ab14 60 mg/kg/wk., Met. 200 mg/kg/day

In the case of `CN(C)C(=N)N=C(N)N` [metformin, reference compound], the “vacuolization and islet fibrosis severity” value (AB14 60 mg/kg, metformin, or combined, vs vehicle ZDF) is reported as “trend towards a decrease”, the “Arteries, medial/intimal hypertrophy, severity 0, incidence” value [1] is reported as 9 and the “Arteries, medial/intimal hypertrophy, severity 1, incidence” value [1] is reported as 1. The “Brown pigment-laden, severity 1, incidence” value [1] was 7, the “Brown pigment-laden, severity 2, incidence” value [1] was 3 and the “Eosinophilic granulocyte infiltration, severity 0, incidence” value [1] was 10. For the same compound, the “Exocrine cell vacuolation, severity 0, incidence” value [1] was 10, the “Fat tissue: Fat tissue necrosis, group mean score” value [1] was 0 and the “Interstitial fibroplasia/fibrosis, severity 0, incidence” value [1] was 9. The “Interstitial fibroplasia/fibrosis, severity 1, incidence” value [1] was 1, the “Interstitial hemorrhage, severity 0, incidence” value [1] was 4 and the “Interstitial hemorrhage, severity 1, incidence” value [1] was 6. The “Islet Cell Vacuolation, severity 0, incidence” value [1] was 1, the “Islet Cell Vacuolation, severity 1, incidence” value [1] was 4 and the “Islet Cell Vacuolation, severity 2, incidence” value [1] was 5. For the same compound, the “Islet Fibrosis, severity 1, incidence” value [1] was 3, the “Islet Fibrosis, severity 2, incidence” value [1] was 7 and the “Islet cell anisocytosis/anisokaryosis, severity 0, incidence” value [1] was 2. The “Islet cell anisocytosis/anisokaryosis, severity 1, incidence” value [1] was 8, the “Islet cell mitosis, severity 0, incidence” value [1] was 5 and the “Islet cell mitosis, severity 1, incidence” value [1] was 5. For the same compound, the “Islet cell single cell necrosis, severity 0, incidence” value [1] was 7, the “Islet cell single cell necrosis, severity 1, incidence” value [1] was 3 and the “Islet granulocytic infiltration, severity 0, incidence” value [1] was 6. For the same compound, the “Islet granulocytic infiltration, severity 1, incidence” value [1] was 4, the “Islet hemorrhage, severity 0, incidence” value [1] was 8 and the “Islet hemorrhage, severity 1, incidence” value [1] was 2. For the same compound, the “Large/Giant Islets, severity 0, incidence” value [1] was 1, the “Large/Giant Islets, severity 1, incidence” value [1] was 1 and the “Large/Giant Islets, severity 2, incidence” value [1] was 3. The “Large/Giant Islets, severity 3, incidence” value [1] was 5, the “Lymph node: Brown pigment-laden macrophages, group mean score” value [1] was 0 and the “Lymph node: Eosinophilic granulocyte infiltration, group mean score” value [1] was 0.5. The “Lymph node: Erythrophagocytosis—sinusoidal, group mean score” value [1] was 0, the “Lymph node: Pink protein rich sinusoidal lymph, group mean score” value [1] was 0 and the “Lymph node: Sinusoidal hemorrhage, group mean score” value [1] was 0. For the same compound, the “Lymph node: Sinusoidal mast cells, group mean score” value [1] was 0, the “Mononuclear cell infiltration, severity 1, incidence” value [1] was 10 and the “Pancreas: Arteries, medial/intimal hypertrophy, group mean score” value [1] was 0. The “Pancreas: Brown pigment-laden macrophages, group mean score” value [1] was 1, the “Pancreas: Eosinophilic granulocyte infiltration, group mean score” value [1] was 0 and the “Pancreas: Exocrine cell vacuolation, group mean score” value [1] was 0. The “Pancreas: Interstitial fibroplasia/fibrosis, group mean score” value [1] was 0, the “Pancreas: Interstitial hemorrhage, group mean score” value [1] was 1 and the “Pancreas: Islet cell anisocytosis/anisokaryosis, group mean score” value [1] was 1. The “Pancreas: Islet cell mitosis, group mean score” value [1] was 0.5, the “Pancreas: Islet cell single cell necrosis, group mean score” value [1] was 0 and the “Pancreas: Islet cell vacuolation, group mean score” value [1] was 1.5. For the same compound, the “Pancreas: Islet fibrosis, group mean score” value [1] was 2, the “Pancreas: Islet granulocytic infiltration, group mean score” value [1] was 0 and the “Pancreas: Islet hemorrhage, group mean score” value [1] was 0. The “Pancreas: Large/giant islet(s), group mean score” value [1] was 2.5, the “Pancreas: Mononuclear cell infiltration, group mean score” value [1] was 1 and the “Pancreas: Pancreatic ductule hyperplasia, group mean score” value [1] was 0.5. The “Pancreatic ductule hyperplasia, severity 0, incidence” value [1] was 5 and the “Pancreatic ductule hyperplasia, severity 1, incidence” value [1] was 5.
